In paper PMC6759747:

Assay: on-resin side-chain-to-N-terminus lactamisation (lanthionine D-half alpha-COOH + N-terminal amine); PyAOP 5 eq, HOAt 5 eq, DIPEA 10 eq, after TBAF (Teoc/TMSE) and piperidine (Fmoc) removal; NovaSyn TGT low-loading resin
Settings: the molecule shown is the open-chain precursor, DMF, 60.0 °C

SMILES | ring closure, overall yield (16-membered ring, 3.1 h) | other results
*OC(=O)[C@H](C)NC(=O)[C@H](CSC[C@@H](N)C(=O)O)NC(=O)[C@H](CC(C)C)NC(=O)[C@H](CSC(c1ccccc1)(c1ccccc1)c1ccccc1)NC(=O)[C@@H](N)CC(C)C | 15% | –
*OC(=O)[C@H](C)NC(=O)[C@H](CSC[C@@H](N)C(=O)O)NC(=O)[C@H](CC(C)C)NC(=O)[C@H](COC(C)(C)C)NC(=O)[C@@H](N)CC(C)C | 5% | –
*OC(=O)[C@H](CCCCNC(=O)OC(C)(C)C)NC(=O)[C@H](CS[C@@H](C)[C@@H](N)C(=O)O)NC(=O)CNC(=O)[C@@H]1CCCN1 | – | ring closure, overall yield (13-membered ring, 5.1 h): 37%
*OC(=O)[C@@H](NC(=O)[C@H](CSC[C@@H](N)C(=O)O)NC(=O)CNC(=O)[C@@H](N)CC(C)C)[C@@H](C)OC(C)(C)C | – | ring closure, overall yield (13-membered ring, 3.1 h): 34%
*OC(=O)[C@H](C)NC(=O)[C@H](CSC[C@@H](N)C(=O)O)NC(=O)[C@H](CC(C)C)NC(=O)[C@H](CSC(c1ccccc1)(c1ccccc1)c1ccccc1)NC(=O)[C@@H](N)[C@@H](C)CC | 11% | –
*OC(=O)[C@H](C)NC(=O)[C@H](CSC[C@@H](N)C(=O)O)NC(=O)[C@H](CC(C)C)NC(=O)[C@H](C)NC(=O)[C@@H](N)CC(C)C | 3% | –
*OC(=O)[C@H](CCCCNC(=O)OC(C)(C)C)NC(=O)[C@H](CSC[C@@H](N)C(=O)O)NC(=O)CNC(=O)[C@@H]1CCCN1 | – | ring closure, overall yield (13-membered ring, 3.1 h): 7%
